Test results as given in PubChem BioAssay (NCI).
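Interpolation was linear, between the two tested concentrations surrounding the appropriate level; five concentrations were tested over 48 hours in 96-well plates. The concentration for 50% growth inhibition is given as GI50. TGI is the concentration that stops growth completely.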

How the values were obtained:
Test in all cases: NCI-60 cell line screen, 48 h
[1] = tested on: HCT-15 colon
[2] = tested on: RPMI-8226 leukemia
[3] = tested on: A549 NSCLC
[4] = tested on: OVCAR-4 ovarian
[5] = tested on: RXF 393 renal
[6] = tested on: UACC-62 melanoma
[7] = tested on: KM12 colon
[8] = tested on: HCT-116 colon
[9] = tested on: NCI-H460 lung
[10] = tested on: SF-539 CNS

Row | Compound | TGI [1] [µM] | TGI [2] [µM] | TGI [3] [µM] | TGI [4] [µM] | TGI [5] [µM] | TGI [6] [µM] | TGI [7] [µM] | TGI [8] [µM] | TGI [9] [µM] | TGI [10] [µM] | GI50 [1] [µM] | GI50 [2] [µM] | GI50 [3] [µM] | GI50 [4] [µM] | GI50 [5] [µM] | GI50 [6] [µM] | GI50 [7] [µM] | GI50 [8] [µM] | GI50 [9] [µM] | GI50 [10] [µM]
1 | Cc1ccc(NC(=O)/C(=N/N(C)C)C(C2OC(=O)c3ccccc32)[N+](=O)[O-])cc1 (stereo not given) | > 100 | > 100 | > 100 | > 100 | > 100 | > 100 | > 100 | > 100 | > 100 | > 100 |  |  |  |  |  |  |  |  |  | 
2 | COc1ccc(C(CC(=O)c2ccccc2)C(C(=O)c2ccccc2)C(c2ccc(OC)cc2)C2C(=O)NC(=S)NC2=O)cc1 (stereo not given) | 37.2 | > 100 | 75.7 | > 100 | > 100 | 34 | 39.8 | 37.4 | 50.7 | 36.1 | 12.9 | 25.6 | 8.96 | 30.3 | 18.2 | 13.3 | 8.12 | 15.4 | 5.88 | 10.1
3 | NC(=S)N=Nc1c(O)c2ccccc2c2ccccc12 | > 55.4 | > 100 | 12.1 | 37 | 44.7 | 3.19 | > 100 | 51.5 | 11.6 | 9.16 | 3.22 | 9.73 | 3.44 | 13 | 18.7 | 1.69 | 48.2 | 4.35 | 3.23 | 2.48
4 | O=C(CCc1nnc2s/c(=C\c3ccccc3Cl)c(=O)n12)Nc1cc(Cl)ccc1Cl | > 100 | > 100 | > 100 | > 100 | > 100 | > 100 | > 100 | > 100 | > 100 | > 100 |  |  |  |  |  |  |  |  |  | 
5 | COc1ccc(Nc2nc3cc(N)cc(N)c3nc2-c2ccccc2)cc1OC | > 100 | 28.3 | > 100 | 52.1 | 49.4 | 27.4 | 32 | 29.7 | > 100 | 37.5 | 29 | 7.95 | 35.2 | 18.7 | 8.15 | 13.4 | 14.8 | 14.9 | 20.5 | 16.2
6 | Cc1ccc(-c2nc([P+](c3ccccc3)(c3ccccc3)c3ccccc3)c(Nc3ccccc3)o2)cc1 | 1.81 | 0.739 | 2.87 | 1.26 | 2.34 | 1.93 | 1.83 | 1.22 | 1.8 | 2.91 | 0.487 | 0.227 | 1.15 | 0.32 | 0.926 | 0.63 | 0.519 | 0.265 | 0.515 | 1.54
7 | C[C@]12CCNC(=O)C=C1CC[C@@H]1C2CC[C@@]2(C)C1CC[C@@H]2OC(=O)COc1ccc(N(CCCl)CCCl)cc1 (stereo not given in full) | 13.1 | 47.6 | 23 | 20.5 | 18 | 6.41 | 24.4 | 13.9 | 7.26 | 9.01 |  |  |  |  |  |  |  |  |  | 
